Results from EP2945947B1, “INHIBITING THE TRANSIENT RECEPTOR POTENTIAL A1 ION CHANNEL” (Merck Sharp & Dohme Corp., priority 2013, dated 2014).
Converted amounts (≈) assume the structure as drawn. Where a name gives a salt, the structure may show the parent alone. Read-outs that look alike come from different tables or passages of the source.

Legend:
[1] = Aqueous solubility in buffered solutions, HPLC (Example 2); type: physicochemical; conditions: kinetic from dmso stock, ambient temperature
[2] = tested on: Female Sprague Dawley rats; assay: Rodent acute tolerability test with liver function tests (Example 5); type: in vivo, rat; parameters: key to Alterations in LFT: (↔) indicates blood levels of markers for potential liver damage within normal range; (↑) indicates blood levels of markers for potential liver damage elevated above normal range; conditions: for Alterations in LFT / LFT: % upper normal range ALT serum levels / LFT: % upper normal range AST serum levels: single IV bolus dose 100 mg/kg, about 24 hours post dose
Method: Compounds of Formula (Ia) were assessed for acute tolerability in a rodent model at dose levels ranging from 100 - 200 mg/kg based upon the minimum efficacious dose of each compound. Female Sprague Dawley rats were administered up to a 10 mL/kg dose volume of each compound in 0.9% saline at appropriate concentrations as an intravenous bolus via the lateral tail vein. The animals were observed immediately post dose and for up to twenty four hours post dose and clinical observations were recorded. Additionally, approximately twenty four hours post dose animals were euthanized and blood taken for serum chemistry analysis with a focus on liver function tests (LFTs). The maximum tolerated single dose and LFT results are summarized in Table 3, where (↔) indicates blood levels of markers for potential liver damage within normal range and (↑) indicates blood levels of markers for potential liver damage elevated above normal range. Referring to the data in Table 3, LFT blood levels of markers for potential liver damage remained within normal range for the compounds of Formula (Ia), while LFTs were elevated for Comparator Compounds including 5-10 fold elevation above normal for ALT and AST blood levels observed upon administration of Comparative Compound 1. […]

rats [3] = assay: Single-dose toxicity studies in rats (Example 7); type: in vivo
Method: (§1) In one single dose PK study conducted in fed and fasted rats, oral administration of Comparative Compound 2 in 30% HPCD produced adverse clinical signs in some of the fasted rats only.
(§2) Intravenous administration of Comparative Compound 2 (a nanosuspension formulation in 0.5% polysorbate 80 and 0.1% Poloxamer 188 and 0.8%NaCl) at dose levels of 3, 10, and 30 mg/kg as a single slow bolus (∼2 min) to male SD rat was well-tolerated.
(§3) Intravenous administration of Compound 1-B as a single, 30-minute infusion to SD female rats was well-tolerated at dose levels up to 300 mg/kg. No adverse clinical signs were observed concerning Compound 1-B.
(§4) Intravenous administration of Compound 5-T as a single, 30-minute infusion to SD female rats was well-tolerated at dose levels up to 300 mg/kg. No adverse clinical signs were observed concerning Compound 5-T.
(§5) A single oral dose administration of Compound 5-T in a Spray Dried Dispersion (SDD) formulation (a suspension of SDD powder) at nominal doses of 3, 30, 100, and 300 mg/kg to fed female Sprague Dawley rats were well-tolerated. No adverse clinical signs were observed concerning Compound 5-T.

[4] = Single-dose toxicity studies in rats (Example 7); type: in vivo; conditions: rat, in vivo; single IP administration 100 mg/Kg, rats; read-out: plasma Cmax
Method: as §1, §2, §3, §4, §5

rat = assay: Rodent cold plate pain model, Complete Freund's Adjuvant (Example 4); type: in vivo; conditions: cold plate 1 °C, Figures 1 and 2
Method: CFA-induced pain test method reported in del Camino et al., J. Neurosci., 30 (45):15165-15174. Briefly, the right hind paw is sensitized to cold temperature (allodynic) by administering 0.1 mL of Complete Freund's Adjuvant (CFA) to that paw. Two to four days later, the time it takes for the animal to lift its CFA-injected paw from the cold surface is recorded compared to its un-injected normal left hind paw. […] To avoid tissue damage, the maximum cut-off time is five minutes. Animals that are allodynic (average PWL to the first three pain behaviors <150 seconds for the CFA-injected hind paw: ∼ ≥50% difference between the normal and CFA-injected paw) are included in the study and subsequently randomized across treatment groups. The following day, the animals in some groups are dosed with a test compound under blinded conditions. Following the one to two hour pre-treatment time, the post-dose PWL readings are taken again. The efficacy of the drug treatment is assessed by comparing the PWL in the drug treatment animals to those that receive the vehicle.

human TRPA1 = human TRPA1 (Homo sapiens, UniProt O75762); assay: Inhibition of the TRPA1 ion channel, whole cell patch configuration (Example 1); type: cell-based; conditions: current activation 10 µM AITC, read-out: Human TRPA1 IC50 Inward Current
Method: Compounds of Formula (Ia) inhibit the TRPA1 channel, as measured using the method of Example 1. […] Data for TRPA1 inhibition and for TRPA1 selectivity was obtained by this method for the indicated compounds of Formula (Ia), with the relevant data included in Tables 1a - f below. All currents were recorded in whole-cell configuration using EPC-9 and EPC-10 amplifiers and Patchmaster software (HEKA). […] The standard pipette solution consisted of 140mM CsAsp, 10 mM EGTA, 10 mM HEPES, 2.27 mM MgCl2, 1.91 mM CaCl2, 4 mM MgATP, and 0.1-0.3 mM Na2GTP, with pH adjusted to 7.2 with CsOH. In addition, a solution containing 145 mM CsCl, 10 mM HEPES, 10 mM EGTA and 1 mM MgCl2 (pH 7.2 adjusted with CsOH) can be used. The standard bath solution contained 150 mM NaCl, 10 mM HEPES, 10 mM glucose, 4.5 mM KCl, 1 mM EGTA, 3 mM MgCl2, with pH adjusted to 7.4 with NaOH. In some instances, 2 mM CaCl2 was added in place of EGTA and the concentration of MgCl2 was reduced to 1 mM.
Data were collected either by continuous recordings at -60 mV or by applying voltage ramps from a holding potential of 0 mV every 4 s. Continuous recordings were collected at 400 Hz and digitally filtered off-line at 10 Hz for presentation. Voltage ramps were applied from - 100 mV to 100 mV over the course of 400 ms, and data were collected at 10 kHz and filtered at 2.9 kHz. Inward and outward currents were analyzed from the ramps at -80 and 80 mV, respectively. Liquid junction potential correction was not used.
Solutions were switched using a gravity-fed continuous focal perfusion system. To achieve rapid temperature changes, two temperature control, and perfusion systems were employed simultaneously. For temperatures ≥ 22°C, a Warner Instruments bipolar temperature controller (TC-344B) and inline heater (SHM-8) were used. […] Temperatures were confirmed using a thermistor (Warner Instruments, TA-29), with temperatures at the recorded cell estimated to be within +/- 2°C of those reported.
The antagonist effects of compounds of Formula (Ia) against human TRPA1 ("hTRPA1") and for some compounds rat TRPA1 ("rTRPA1") in a whole cell patch configuration were evaluated using the in vitro assay described above. The current activation tested was 10 µM AITC, and the tested concentrations ranged from 5 µM and 500 nM. Table 1a (Comparative Compounds)

rats [5] = assay: Rodent formalin pain model (Example 3); type: in vivo; conditions: rat; for Minimal Efficacious Dose of Compound in Formalin Model: IV, statistically significant difference vs vehicle at 0 - 2 min (p≤0.05); for Duration of Pain Behavior: first two minutes after formalin, vehicle 88.6
Method: Compounds of Formula (Ia) are active in rodent models of pain induced by direct activation of the TRPA1 channel with intraplantar injection of the TRPA1 agonist formalin. Compounds of Formula (Ia) were tested in the formalin-induced pain test reported by Abbott et. al. Pain. 1995 Jan;60(1):91-102. Dubuisson et al. describe a method for assessing pain and analgesia in rats. Briefly, dilute formalin (50 µL of 3 % formalin) is injected into the plantar surface of the hind paw. […] The individual responsible for counting the pain behaviors in a particular study is blinded to the treatment groups.
Table 2 is a data table showing the results from testing compounds of Formula (Ia) in the rodent formalin-induced pain model described in […]. Rats were treated with the compounds of Formula (Ia) at various doses (0.1, 0.3, 1, 1.2, 3, 4, 10, or 30 mg/Kg IV) or with a control composition containing the vehicle (i.e., without a compound of Formula (Ia)). Pain behaviors (flinch, lift, lick, bite) were monitored following intraplantar formalin injection. Referring to Table 2, the minimum effective dose was derived from dose resulting in statistically significant difference in behavior at 0 - 2 min time period as compared with vehicle (p≤0.05).

[6] = sodium bicarbonate buffer in water for injection/5% dextrose, pH 9.0, 50 mM sodium bicarbonate, read-out: pH 9.0 aqueous solubility
[7] = sodium phosphate buffer in water for injection/5% dextrose, pH 7.4, 75 mM sodium phosphate, read-out: pH 7.4 aqueous solubility

human TRPA1, sequence (O75762 whole entry): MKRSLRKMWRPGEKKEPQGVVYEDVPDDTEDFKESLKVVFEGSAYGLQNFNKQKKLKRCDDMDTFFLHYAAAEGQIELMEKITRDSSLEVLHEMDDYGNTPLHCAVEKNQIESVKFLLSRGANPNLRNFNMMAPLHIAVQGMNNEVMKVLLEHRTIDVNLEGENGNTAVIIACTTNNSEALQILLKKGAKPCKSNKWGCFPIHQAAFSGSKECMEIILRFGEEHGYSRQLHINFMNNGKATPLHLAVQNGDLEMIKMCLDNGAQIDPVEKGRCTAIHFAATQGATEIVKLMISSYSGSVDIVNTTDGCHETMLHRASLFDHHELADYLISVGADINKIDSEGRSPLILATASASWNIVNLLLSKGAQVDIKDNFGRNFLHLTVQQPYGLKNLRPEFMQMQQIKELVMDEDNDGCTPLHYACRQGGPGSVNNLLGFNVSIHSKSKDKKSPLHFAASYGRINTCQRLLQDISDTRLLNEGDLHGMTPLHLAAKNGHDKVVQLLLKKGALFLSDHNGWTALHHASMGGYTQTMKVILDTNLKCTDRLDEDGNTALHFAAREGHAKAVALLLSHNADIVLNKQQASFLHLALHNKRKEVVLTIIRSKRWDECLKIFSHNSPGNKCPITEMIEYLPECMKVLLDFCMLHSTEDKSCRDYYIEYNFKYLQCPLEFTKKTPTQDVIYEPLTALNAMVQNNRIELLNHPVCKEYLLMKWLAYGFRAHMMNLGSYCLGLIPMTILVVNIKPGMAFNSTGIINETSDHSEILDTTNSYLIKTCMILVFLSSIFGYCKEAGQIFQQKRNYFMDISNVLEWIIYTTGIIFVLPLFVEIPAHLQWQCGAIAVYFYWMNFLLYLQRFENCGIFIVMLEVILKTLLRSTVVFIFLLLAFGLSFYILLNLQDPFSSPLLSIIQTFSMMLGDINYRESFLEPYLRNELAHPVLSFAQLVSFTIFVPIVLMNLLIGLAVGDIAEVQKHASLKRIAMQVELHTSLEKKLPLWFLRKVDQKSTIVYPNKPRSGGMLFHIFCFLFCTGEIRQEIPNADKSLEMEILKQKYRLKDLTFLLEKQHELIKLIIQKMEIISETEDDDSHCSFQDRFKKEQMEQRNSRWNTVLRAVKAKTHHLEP

| SMILES | Paw Withdrawal Latency, CFA cold allodynia (rat) | IC50 (human TRPA1) | solubility kinetic at 24 h [1, 6] | solubility kinetic at 24 h [1, 7] | Alterations in LFT [2] | LFT: % upper normal range ALT serum levels [2] | LFT: % upper normal range AST serum levels [2] | Minimal Efficacious Dose of Compound in Formalin Model (rats [5]) | Duration of Pain Behavior (rats [5]; dose 0.3 mg/kg IV) | further results |
| --- | --- | --- | --- | --- | --- | --- | --- | --- | --- | --- |
| C[C@H]1CCCN1c1ncc(-c2cccc(NC(=O)Cn3cnc4c3c(=O)n(C)c(=O)n4C)n2)cn1 [Comparator 2, reference compound] | significantly less potency | 76 to 100 nM |  |  |  |  |  |  |  | solubility kinetic at 24 h ([1]; buffered solution (sodium acetate buffer), pH 4.0, 50mM sodium acetate in 5% dextrose, read-out: pH 4.0 aqueous solubility): 9 µg/mL (≈ 18.9 µM); solubility kinetic at 24 h ([1]; buffered solution (sodium bicarbonate buffer), pH 9.0, 50 mM sodium bicarbonate, read-out: pH 9.0 aqueous solubility): 10 µg/mL (≈ 21 µM); solubility kinetic at 24 h ([1]; buffered solution (sodium phosphate buffer), pH 7.4, 75 mM sodium phosphate, read-out: pH 7.4 aqueous solubility): 7 µg/mL (≈ 14.7 µM); serum biomarkers of hepatotoxicity ([2]; animal studies of Example 5): did not elevate the serum biomarkers of hepatotoxicity; tolerability (rats [3]; IV single slow bolus, nanosuspension formulation, 3, 10, and 30 mg/kg, male SD rat): well-tolerated; clinical observations (rats [3]; IV single slow bolus, nanosuspension formulation, all three dose levels (3, 10, 30 mg/kg), ~1hr postdose, male SD rat): Mild flushing/mild swelling of the ears; clinical signs (rats [3]; single IP administration 100 mg/Kg, rats, approximately 30 minutes to 4 hours): mild to moderate lethargy; adverse clinical signs (rats [3]; single oral dose in 30% HPCD, 50 mg/kg and 100 mg/kg, fasted female rats only (two of three and one of three)): labored breathing and red urine; Cmax [4]: ~110 µg/mL |
| CC(C(=O)N(COP(=O)(O)O)c1cccc(-c2cnc(N3CCCC3C(F)(F)F)nc2)n1)n1cnc2c1c(=O)n(C)c(=O)n2C (stereo not drawn) [Compound 1-A, phosphate, sodium salt] | reversal of CFA Cold Allodynia | > 100 nM | > 1000 µg/mL | > 1000 µg/mL | ↔ | <100%/<100% | <100%/<100% | 1.2 mg/kg | 77.7 s | Duration of Pain Behavior (rats [5]; dose 1.2 mg/kg IV): 43.3 s; Duration of Pain Behavior (rats [5]; dose 4 mg/kg IV): 19.8 s |
| C[C@@H](C(=O)N(COP(=O)(O)O)c1cncc(-c2cnc(N3CCC[C@H]3C(F)(F)F)nc2)n1)n1cnc2c1c(=O)n(C)c(=O)n2C [Compound 5-S, ((S)-2-(1,3-dimethyl-2,6-dioxo-1,2,3,6-tetrahydro-7H-purin-7-yl)-N-(6-(2-((S)-2-(trifluoromethyl)pyrrolidin-1-yl)pyrimidin-5-yl)pyrazin-2-yl)propanamido)methyl dihydrogen phosphate] |  | > 100 nM | > 1000 µg/mL | > 1000 µg/mL | ↔ | <100%/<100% | <100%/<100% | 3 mg/kg | 69.8 s | Duration of Pain Behavior (rats [5]; dose 1 mg/kg IV): 52.3 s; Duration of Pain Behavior (rats [5]; dose 3 mg/kg IV): 8.4 s; Duration of Pain Behavior (rats [5]; dose 10 mg/kg IV): 0 s |
